The subject of data set [1] is Aβtotal. The data set can be described thus: In vivo efficacy: Aβtotal lowering in brain after single oral dose (Table 8). As to conditions: mouse brain soluble fraction, ELISA, compared to untreated animals. The source says:
(§1) To determine whether acute administration of an Aβ42 lowering agent would reduce Aβ42 levels in vivo, non-transgenic rodents, e.g. mice or rats were used. Alternatively, two to three month old Tg2576 mice expressing APP695 containing the “Swedish” variant can be used or a transgenic mouse model developed by Dr. Fred Van Leuven (K.U.Leuven, Belgium) and co-workers, with neuron-specific expression of a clinical mutant of the human amyloid precursor protein [V7171] (Moechars et al., 1999 J. Biol. Chem. 274, 6483). Young transgenic mice have high levels of Aβ in the brain but no detectable Aβ deposition. At approximately 6-8 months of age, the transgenic mice start to display spontaneous, progressive accumulation of β-amyloid (Aβ) in the brain, eventually resulting in amyloid plaques within the subiculum, hippocampus and cortex. Animals treated with the Aβ42 lowering agent were examined and compared to those untreated or treated with vehicle and brain levels of soluble Aβ42 and total Aβ would be quantitated by standard techniques, for example, using ELISA. Treatment periods varied from hours to days and were adjusted based on the results of the Aβ42 lowering once a time course of onset of effect could be established.
(§2) A typical protocol for measuring Aβ42 lowering in vivo is shown but it is only one of many variations that could be used to optimize the levels of detectable Aβ. For example, Aβ42 lowering compounds were formulated in 20% of Captisol® (a sulfobutyl ether of β-cyclodextrin) in water or 20% hydroxypropyl β cyclodextrin. The Aβ42 lowering agents were administered as a single oral dose or by any acceptable route of administration to overnight fasted animals. After four hours, the animals were sacrificed and Aβ42 levels were analysed.
(§3) Blood was collected by decapitation and exsanguinations in EDTA-treated collection tubes. Blood was centrifuged at 1900 g for 10 min at 4° C. and the plasma recovered and flash frozen for later analysis. The brain was removed from the cranium and hindbrain. The cerebellum was removed and the left and right hemisphere were separated. The left hemisphere was stored at −18° C. for quantitative analysis of test compound levels. The right hemisphere was rinsed with phosphate-buffered saline (PBS) buffer and immediately frozen on dry ice and stored at −80° C. until homogenization for biochemical assays.
(§4) Mouse brains were resuspended in 10 volumes of 0.4% DEA (diethylamine)/50 mM NaCl pH 10 (for non-transgenic animals) or 0.1% 3-[(3-cholamidopropyl)-dimethyl-ammonio]-1-propanesulfonate (CHAPS) in tris buffered saline (TBS) (for transgenic animals) containing protease inhibitors (Roche-11873580001 or 04693159000 per gram of tissue, e.g. for 0.158 g brain, add 1.58 ml of 0.4% DEA. All samples were sonicated for 30 sec on ice at 20% power output (pulse mode). Homogenates were centrifuged at 221.300×g for 50 min. The resulting high speed supernatants were then transferred to fresh tubes and were optionally further purified before the next step. A portion of the supernatant was neutralized with 10% 0.5 M Tris-HCl and this was used to quantify Aβtotal.
(§5) The obtained supernatants were purified with Water Oasis HLB reverse phase columns (Waters Corp., Milford, Mass.) to remove non-specific immunoreactive material from the brain lysates prior subsequent Aβ detection. Using a vacuum manifold, all solutions were passed through the columns at a rate of approximately 1 ml per minute, so the vacuum pressure was adjusted accordingly throughout the procedure. Columns were preconditioned with 1 ml of 100% MeOH, before equilibration with 1 ml of H2O. Non-neutralized brain lysates were loaded onto the columns. The loaded samples were then washed twice with the first wash performed with 1 ml of 5% MeOH, and the second wash with 1 ml of 30% MeOH. Finally, the Aβ was eluted from the columns and into 100×30 mm glass tubes, with a solution of 90% MeOH with 2% NH4OH. […]
A general note: ELISA stands for enzyme-linked immunosorbent assay.

For data set [2], the system named is Aβtotal. The data set can be described thus: Method 1: Aβtotal sandwich ELISA in supernatant of SKNBE2 cells carrying APP 695-wild type (Tables 7a, 7b). It is filed as cell-based. The procedure, abridged:
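SKNBE2 cells expressing wild-type APP695 were exposed to compound for 18 Hours in Ultraculture with 1% glutamine. Aβtotal in the supernatant was read by 6E10-capture/biotinylated 4G8 sandwich ELISA with a fluorogenic peroxidase read-out, and WST-1 checked toxicity. IC50 came from a 4-parameter fit of percent inhibition or percent of control versus concentration.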

In data set [3] the test system is Aβ42. The data set can be described thus: Method 1: Aβ42 sandwich ELISA in supernatant of SKNBE2 cells carrying APP 695-wild type (Tables 7a, 7b). The data set is classed as cell-based. The procedure, abridged:
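IC50 values were derived with a 4-parameter equation, fitting either percent inhibition or percent of compound-free Aβ42 as the control. The Aβ42 came from supernatants of APP695 wild-type SKNBE2 cells treated for 18 hours. It was measured by ELISA with anti-Aβ42 capture, biotinylated 3D6 and TMB absorbance at 450 nm.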

Data set [4] concerns Aβ42. The data set can be described thus: In vivo efficacy: Aβ42 lowering in brain after single oral dose (Table 8). The note with it: mouse brain soluble fraction, ELISA, compared to untreated animals.
Text: as §1, §2, §3, §4, §5

Data set [5] deals with Aβ42. The data set can be described thus: Method 2: Aβ42 Alphalisa in supernatant of SKNBE2 cells carrying APP 695-wild type (Table 7c). As to conditions: Method 2, Alphalisa, overnight incubation. It is filed as cell-based. The procedure, abridged: (§6)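 Secreted Aβ measured by AlphaLISA sandwich immunoassay after overnight compound exposure (37° C, 10^4 cells/well) of APP695-wild-type SKNBE2 cells. Aβtotal pairs antibodies JRF/AβN/25 and biotinylated 4G8; Aβ42 pairs JRF/cAβ42/26 and JRF/AβN/25. Values normalised to compound-free control and fitted with a four-parameter equation for IC50.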
In general terms: In Alpha technology, singlet oxygen from a donor bead excites a nearby acceptor bead.

The subject of data set [6] is Notch-processing activity of the γ-secretase-complex. Put plainly: Notch cell-free assay (NICD production from recombinant Notch substrate N99). The data set is classed as biochemical. The note with it: 1 μM test compound; 0.3-0.5 μM mouse Notch substrate; enriched gamma secretase; 37° C., 6 to 22 h; western blot; control GSI concentration not given. As to the method: The Notch transmembrane domain is cleaved by gamma secretase to release Notch Intracellular C-terminal Domain (NICD).
To monitor the effect of compounds on NICD production, a recombinant Notch substrate (N99) was prepared. The Notch substrate, comprised of mouse Notch fragment (V1711-E1809), an N-terminal methionine and a C-terminal FLAG sequence ([…]), was expressed in E. coli and purified on a column containing an anti-FLAG M2 affinity matrix.
A typical Notch cell-free assay consisted of 0.3-0.5 μM Notch substrate, an enriched preparation of gamma secretase and 1 μM of a test compound (compounds 16, 18 and 106 of the present invention). Controls included a gamma secretase inhibitor (GSI), such as (2S)—N-[2-(3,5-difluorophenyl)acetyl]-L-alanyl-2-phenyl-glycine 1,1-dimethylethyl ester (DAPT) or (2S)-2-hydroxy-3-methyl-N-[(1S)-1-methyl-2-oxo-2-[[(1S)-2,3,4,5-tetrahydro-3-methyl-2-oxo-1H-3-benzazepin-1-yl]amino]ethyl]-butanamide (Semagacestat), and DMSO, the final concentration of DMSO being 1%. Recombinant Notch substrate was pre-treated with 17 μM DTT (1,4-dithiothreitol) and 0.02% SDS (Sodium Dodecyl Sulfate) and heated at 65° C. for 10 min. The mixture of substrate, gamma secretase and compound/DMSO was incubated at 37° C. for 6 to 22 hours (h). Six-hour incubation was sufficient to produce the maximal amount of NICD and the cleaved product remained stable for an additional 16 H. Reaction products were processed for SDS PAGE (Sodium Dodecyl Sulfate-Poly Acrylamide Gel Electrophoresis) and western blotting. Blots were probed with an anti-Flag M2 antibody, followed by LI-COR infrared secondary antibody, and analyzed with the Odyssey Infrared Imaging System (LI-COR® Biosciences).
For orientation: Immunoblotting shows a protein as a band on a membrane.

Data set [7] concerns Aβtotal. The data set can be described thus: Method 2: Aβtotal Alphalisa in supernatant of SKNBE2 cells carrying APP 695-wild type (Table 7c). It is filed as cell-based. The note with it: Method 2, Alphalisa, overnight incubation. In short, it runs like this:
as §6

Data set [8] has as its system mouse Notch2. The data set can be described thus: Notch cell-based assay (N2-CHO/DL-CHO co-culture, Dual-Glo luciferase, NICD production). The note with it: Mus musculus; N2-CHO/DL-CHO co-culture 16 H; five-point curve 3 μM-0.3 nM; read-out: average IC50 values from the Notch cell-based assay (luciferase assay readouts). The source says:
The Notch cell-based assay was based on the interaction of Notch and its ligand in a co-culture system and utilized the Dual-Glo Luciferase Assay System (Promega) to monitor NICD production. Two stable cell lines, N2-CHO and DL-CHO, were established to express full-length mouse Notch2 and Delta respectively. Cells that expressed mouse Notch were also transfected with two plasmids, pTP1-Luc and pCMV-RLuc, to express firefly and Renilla luciferase. Expression of firefly luciferase was under the control of TP1 promoter that responded to NICD activation.
N2-CHO cells were seeded at 1×10^5/well in 24-well plates the day before transfection. On the second day, cells were double transfected with 3 μg/well pTP1-Luc (expressing firefly luciferase) and 0.3 ng/well pCMV-RLuc (expressing Renilla luciferase). After 6 H incubation, transfected N2-CHO cells were washed and DL-CHO cells (2×10^5 cells/well) were added.
Compounds were pre-mixed with DL-CHO cell suspension in a five-point curve. Typically, compound treatment was performed in duplicate with a serial 1:10 dilution (3 μM-0.3 nM) in DMSO. The final concentration of DMSO in a given culture was 1%. Controls included non-transfected cells and transfected cells treated with a GSI or DMSO only. Luciferase assays were performed after 16 H co-culture and compound treatment.
The luciferase assay was carried out according to manufacture's instructions. Briefly, cells were washed with PBS (Phosphate Buffered Saline), lysed with Passive Lysis Buffer (Promega), and incubated at room temperature for 20 min. Lysates were mixed with Dual-Glo Luciferase Reagent and the firefly luciferase activity was measured by reading the luminescence signal in the EnVision 2101 Multilabel reader. Dual-Glo Stop & Glo Reagent was then added to each well and the Renilla luciferase signal was measured.

[9] abbreviates: Homo sapiens, SKNBE2, Table 7b, averaged IC50, non-linear regression of percentage of control vs log concentration, 4-parameter equation.
Where [10] appears, read: Homo sapiens, Table 7a, SKNBE2 cells, compounds 18 h, XLfit 4-parameter fit of percent inhibition, top/bottom fixed to 100/0, hill slope 1.
The mark [11] stands for this setting: Table 7b, averaged IC50, non-linear regression of percentage of control vs log concentration, 4-parameter equation.

pIC50: −log10 of the molar value. Where only a bound is given, the exact number is not on record here.

From patent US8946426B2, “Substituted bicyclic heterocyclic compounds as gamma secretase modulators” (Janssen Pharmaceuticals, Inc., priority 2009, dated 2015) come the findings set out here.

`COc1cc(Nc2cccc3c2nc(-c2ccc(F)cc2)n3C)ccc1-c1cnn(C)c1` [Compound 13] gave a melting point of 157.6 °C. The “Aβtotal (% Ctrl)_Mean” value in data set [1] was determined as 105 % Ctrl. Moreover, the pIC50 in [2] (setting [9]) is less than 5.52. In data set [2] (setting [10]), this molecule gave a pIC50 of less than 5.52. The pIC50 in [3] (setting [9]) is 7.20. This molecule also had a negative logarithm of the IC50 (pIC50) in data set [3] (setting [10]) of 7.19. The “Aβ42 (% Ctrl)_Mean” value in data set [4] stood at 87 % Ctrl.
Take `COc1cc(Nc2nccc3c2nc(-c2ccc(F)cc2)n3C)ccc1-c1cnc(C)o1` [Compound 14]: the melting point worked out at 204.9 °C. Besides, the “Aβtotal (% Ctrl)_Mean” value in data set [1] was 91 % Ctrl. The molecule also had a pIC50 in data set [2] (setting [9]) of less than 5.52. In data set [2] (setting [10]), this molecule gave a negative logarithm of the IC50 (pIC50) of less than 5.52. Also, the pIC50 in data set [3] (setting [9]) is 6.98. In data set [3] (setting [10]), this molecule gave a negative logarithm of the IC50 (pIC50) of 6.96. Moreover, the “Aβ42 (% Ctrl)_Mean” value in data set [4] turned out to be 78 % Ctrl.
In the case of `Cc1ncc(-c2ccc(Nc3cc(F)cc4c3nc(-c3ccc(F)cc3)n4C)cn2)o1` [Compound 106], the pIC50 in data set [2] (setting [11]) is less than 6.00; in data set [5], 7.62; in data set [3] (setting [11]) it was 8.00; in data set [7] it was less than 5.00. The “effect on the Notch-processing activity of the γ-secretase-complex (production of NICD)” value in [6] is reported as “did not show an effect”.
Molecule `COC(=O)c1cc(Nc2ccc(-c3ocnc3C)c(OC)c2)c2nc(CC(C)C)cn2c1` [Compound 162] displayed a melting point of 157.1 °C. Moreover, the pIC50 in data set [2] (setting [9]) is less than 5.00. For the same molecule, in [5] (Homo sapiens), the pIC50 was 7.49. The same molecule showed a negative logarithm of the IC50 (pIC50) in data set [3] (setting [9]) of 7.60. In addition, in [7] (Homo sapiens), the pIC50 was less than 5.00.
As to `C[C@H](NC(=O)Cc1cc(F)cc(F)c1)C(=O)NC(C(=O)OC(C)(C)C)c1ccccc1` (stereo partly drawn) [DAPT, (2S)—N-[2-(3,5-difluorophenyl)acetyl]-L-alanyl-2-phenyl-glycine 1,1-dimethylethyl ester, reference compound], the negative logarithm of the IC50 (pIC50) in [8] was 7.35. Further, the “effect on the Notch-processing activity of the γ-secretase-complex (production of NICD)” value in data set [6] is on record as “blocked”.
The like results for `CC(C)[C@H](O)C(=O)N[C@@H](C)C(=O)N[C@@H]1C(=O)N(C)CCc2ccccc21` [Semagacestat, (2S)-2-hydroxy-3-methyl-N-[(1S)-1-methyl-2-oxo-2-[[(1S)-2,3,4,5-tetrahydro-3-methyl-2-oxo-1H-3-benzazepin-1-yl]amino]ethyl]-butanamide, reference compound] were, in that order, 7.40 and “blocked”.

What is called pIC50 is −log10 of the IC50, conventionally taken in molar units. In general, melting point refers to the temperature, or range, at which the solid turns liquid.
